In patent US10329289B2, “6,7-dihydro-5H-pyrrolo[3,4-B]pyridin-5-one allosteric modulators of the M4 muscarinic acetylcholine receptor” (Merck Sharp & Dohme Corp., priority 2015, dated 2019):

Biological target: T1, human M4 muscarinic acetylcholine receptor (Homo sapiens, UniProt P08173)
T1 construct: expressed in transfected cells; host or cells: CHO-K1
T1 sequence (P08173 1-479): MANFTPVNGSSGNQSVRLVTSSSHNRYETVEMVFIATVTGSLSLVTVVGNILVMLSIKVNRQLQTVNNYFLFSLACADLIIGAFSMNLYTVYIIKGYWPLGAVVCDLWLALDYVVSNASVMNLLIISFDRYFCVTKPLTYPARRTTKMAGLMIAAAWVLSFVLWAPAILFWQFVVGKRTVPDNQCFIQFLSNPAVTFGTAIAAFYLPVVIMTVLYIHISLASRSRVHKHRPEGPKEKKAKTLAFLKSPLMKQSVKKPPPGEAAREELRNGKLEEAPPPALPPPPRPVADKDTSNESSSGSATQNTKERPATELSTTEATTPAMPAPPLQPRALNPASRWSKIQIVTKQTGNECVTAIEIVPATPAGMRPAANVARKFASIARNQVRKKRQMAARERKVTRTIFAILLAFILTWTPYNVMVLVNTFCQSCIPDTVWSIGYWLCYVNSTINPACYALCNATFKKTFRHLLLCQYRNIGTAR
Experiment: human FLIPR-based M4 PAM assay (Ca2+ mobilization, CHO-K1 cells with human M4 receptor and Gαqi5)
Assay type: cell-based
Details: acetylcholine at 20% of maximum response, read-out: M4 PAM IP
Method in brief: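 Calcium-mobilization (FLIPR) readout in dye-loaded CHO-K1 cells co-expressing human M4 receptor and Gαqi5. Potentiation measured against acetylcholine at a concentration giving 20% of maximal response, with an optional 70% addition; the reported value is the curve inflection point from a 4-parameter logistic fit.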

| EC50 [nM] | SMILES |
| --- | --- |
| 1520 | Cc1cc2c(nc1N1CCC(OCc3cccnc3)CC1)CNC2=O [Example 161, 3-Methyl-2-(4-(pyridin-3-ylmethoxy)piperidin-1-yl)-6,7-dihydro-5H-pyrrolo[3,4-b]pyridin-5-one] |
| 21 | Cc1c(N2CC[C@@H](OCC3(C)CC3)[C@@H](F)C2)nc2c(c1C)C(=O)NC2 [Example 161A, 2-((3S,4R)-3-Fluoro-4-((1-methylcyclopropyl)methoxy)piperidin-1-yl)-3,4-dimethyl-6,7-dihydro-5H-pyrrolo[3,4-b]pyridin-5-one] |
| 51 | Cc1nc2ccc(O[C@@H]3CCN(c4nc5c(cc4C)C(=O)NC5)C[C@@H]3F)cc2o1 [Example 162, 2-((3S,4R)-3-fluoro-4-((2-methylbenzo[d]oxazol-6-yl)oxy)piperidin-1-yl)-3-methyl-6,7-dihydro-5H-pyrrolo[3,4-b]pyridin-5-one] |
| 59 | CO[C@@H]1Cc2ccc(OC3CCN(c4nc5c(cc4C)C(=O)NC5)CC3)cc2C1 [Example 162A, (R)-2-(4-((2-methoxy-2,3-dihydro-1H-inden-5-yl)oxy)piperidin-1-yl)-3-methyl-6,7-dihydro-5H-pyrrolo[3,4-b]pyridin-5-one] |
| 47 | CO[C@H]1Cc2ccc(OC3CCN(c4nc5c(cc4C)C(=O)NC5)CC3)cc2C1 [Example 162B, (S)-2-(4-((2-methoxy-2,3-dihydro-1H-inden-5-yl)oxy)piperidin-1-yl)-3-methyl-6,7-dihydro-5H-pyrrolo[3,4-b]pyridin-5-one] |
| 277 | Cc1cc2c(nc1N1CC[C@@H](Oc3ccc4c(c3)C(=O)N(C)C4)[C@@H](F)C1)CNC2=O [Example 163, 2-((3S,4R)-3-fluoro-4-((2-methyl-3-oxoisoindolin-5-yl)oxy)piperidin-1-yl)-3-methyl-6,7-dihydro-5H-pyrrolo[3,4-b]pyridin-5-one] |
| 1140 | Cc1cc2c(nc1N1CCC(Oc3ccc4[nH]nnc4c3)CC1)CNC2=O [Example 163A, 2-(4-((1H-benzo[d][1,2,3]triazol-5-yl)oxy)piperidin-1-yl)-3-methyl-6,7-dihydro-5H-pyrrolo[3,4-b]pyridin-5-one] |
| 82 | COc1ccc(O[C@@H]2CCN(c3nc4c(cc3C)C(=O)NC4)C[C@@H]2F)cn1 [Example 164, 2-((3S,4R)-3-fluoro-4-((6-methoxypyridin-3-yl)oxy)piperidin-1-yl)-3-methyl-6,7-dihydro-5H-pyrrolo[3,4-b]pyridin-5-one] |
| 202 | CCc1cc2c(nc1N1CC[C@@H](Oc3cnc4c(c3)COC4)[C@@H](F)C1)CNC2=O [Example 164A, 2-((3S,4R)-4-((5,7-dihydrofuro[3,4-b]pyridin-3-yl)oxy)-3-fluoropiperidin-1-yl)-3-ethyl-6,7-dihydro-5H-pyrrolo[3,4-b]pyridin-5-one] |
| 83 | Cc1c(N2CC[C@@H](Oc3cnc4c(c3)COC4)[C@@H](F)C2)nc2c(c1C)C(=O)NC2 [Example 165A, 2-((3S,4R)-4-((5,7-dihydrofuro[3,4-b]pyridin-3-yl)oxy)-3-fluoropiperidin-1-yl)-3,4-dimethyl-6,7-dihydro-5H-pyrrolo[3,4-b]pyridin-5-one] |
| 61 | CCc1cc2c(nc1N1CCC(Oc3ccc4c(c3)C[C@H](O)C4)CC1)CNC2=O [Example 166A, (R)-3-ethyl-2-(4-((2-hydroxy-2,3-dihydro-1H-inden-5-yl)oxy)piperidin-1-yl)-6,7-dihydro-5H-pyrrolo[3,4-b]pyridin-5-one] |
| 57 | CCc1cc2c(nc1N1CCC(Oc3ccc4c(c3)C[C@@H](O)C4)CC1)CNC2=O [Example 166B, (S)-3-ethyl-2-(4-((2-hydroxy-2,3-dihydro-1H-inden-5-yl)oxy)piperidin-1-yl)-6,7-dihydro-5H-pyrrolo[3,4-b]pyridin-5-one] |
| 14 | Cc1cc2c(nc1N1CCC(Oc3ccc4[nH]ncc4c3)CC1)CNC2=O [Example 167, 2-(4-((1H-indazol-5-yl)oxy)piperidin-1-yl)-3-methyl-6,7-dihydro-5H-pyrrolo[3,4-b]pyridin-5-one] |
| 188 | Cc1cc2c(nc1N1CCC(Oc3ccc4c(c3)C[S+]([O-])C4)CC1)CNC2=O (centres unmarked) [Example 167A, 3-methyl-2-(4-((2-oxido-1,3-dihydrobenzo[c]thio-phen-5-yl)oxy)piperidin-1-yl)-6,7-dihydro-5H-pyrrolo[3,4-b]pyridin-5-one] |
| 119 | Cc1cc2c(nc1N1CCC(Oc3ccc(OCCN(C)C)nc3)CC1)CNC2=O [Example 168, 2-(4-((6-(2-(dimethylamino)ethoxy)pyridin-3-yl)oxy)piperidin-1-yl)-3-methyl-6,7-dihydro-5H-pyrrolo[3,4-b]pyridin-5-one] |
| 183 | Cc1cc2c(nc1N1CCC(Oc3ccc(OCC(C)(C)N)nc3)CC1)CNC2=O [Example 169, 2-(4-((6-(2-amino-2-methylpropoxy)pyridin-3-yl)oxy)piperidin-1-yl)-3-methyl-6,7-dihydro-5H-pyrrolo[3,4-b]pyridin-5-one] |

| EC50 [nM] | SMILES |
| --- | --- |
| 180 | CCn1cc(OC2CCN(c3nc4c(cc3C)C(=O)NC4)CC2)cn1 [Example 169A, 2-(4-((1-ethyl-1H-pyrazol-4-yl)oxy)piperidin-1-yl)-3-methyl-6,7-dihydro-5H-pyrrolo[3,4-b]pyridin-5-one] |
| 40 | Cc1cc2c(nc1N1CCC(Oc3ccc(OCCO)nc3)CC1)CNC2=O [Example 170, 2-(4-((6-(2-hydroxyethoxy)pyridin-3-yl)oxy)piperidin-1-yl)-3-methyl-6,7-dihydro-5H-pyrrolo[3,4-b]pyridin-5-one] |
| 129 | Cc1cc2c(nc1N1CCC(Oc3cnn(-c4ccccc4)c3)CC1)CNC2=O [Example 170A, 3-methyl-2-(4-((1-phenyl-1H-pyrazol-4-yl)oxy)piperidin-1-yl)-6,7-dihydro-5H-pyrrolo[3,4-b]pyridin-5-one] |
| 79 | COCCOc1ccc(OC2CCN(c3nc4c(cc3C)C(=O)NC4)CC2)cn1 [Example 171, 2-(4-((6-(2-methoxyethoxy)pyridin-3-yl)oxy)piperidin-1-yl)-3-methyl-6,7-dihydro-5H-pyrrolo[3,4-b]pyridin-5-one] |
| 491 | Cc1cc2c(nc1N1CC[C@@H](OCC3(C)CC3)C(F)(F)C1)CNC2=O [Example 171A, (R)-2-(3,3-difluoro-4-((1-methylcyclopropyl)meth-oxy)piperidin-1-yl)-3-methyl-6,7-dihydro-5H-pyrrolo[3,4-b]pyridin-5-one] |
| 14 | Cc1cc2c(nc1N1CC[C@H](OCC3(C)CC3)C(F)(F)C1)CNC2=O [Example 171B, (S)-2-(3,3-difluoro-4-((1-methylcyclopropyl)meth-oxy)piperidin-1-yl)-3-methyl-6,7-dihydro-5H-pyrrolo[3,4-b]pyridin-5-one] |
| 125 | Cc1cc2c(nc1N1CCC(OCC3CCC3)CC1)CNC2=O [Example 172, 2-(4-(cyclobutylmethoxy)piperidin-1-yl)-3-methyl-6,7-dihydro-5H-pyrrolo[3,4-b]pyridin-5-one] |
| 905 | Cc1cc2c(nc1N1CCC(OCC(F)(F)F)CC1)CNC2=O [Example 172A, 3-methyl-2-(4-(2,2,2-trifluoroethoxy)piperidin-1-yl)-6,7-dihydro-5H-pyrrolo[3,4-b]pyridin-5-one] |
| 313 | Cc1cc2c(nc1N1CCC(Oc3ccc(OCCN4CCC4)nc3)CC1)CNC2=O [Example 173, 2-(4-((6-(2-(azetidin-1-yl)ethoxy)pyridin-3-yl)oxy)piperidin-1-yl)-3-methyl-6,7-dihydro-5H-pyrrolo[3,4-b]pyridin-5-one] |
| 207 | CCc1cc2c(nc1N1CCC(Oc3cncc(C)c3)CC1)CNC2=O [Example 173A, 3-ethyl-2-(4-((5-methylpyridin-3-yl)oxy)piperidin-1-yl)-6,7-dihydro-5H-pyrrolo[3,4-b]pyridin-5-one] |
| 45 | CC(=O)NCCOc1ccc(OC2CCN(c3nc4c(cc3C)C(=O)NC4)CC2)cn1 [Example 174, N-(2-((5-((1-(3-methyl-5-oxo-6,7-dihydro-5H-pyrrolo[3,4-b]pyridin-2-yl)piperidin-4-yl)oxy)pyridin-2-yl)oxy)ethyl)acetamide] |
| 22 | Cc1c(N2CC[C@@H](OCC3(C)CC3)[C@H](F)C2)nc2c(c1C)C(=O)NC2 [Example 174A, 2-((3R,4R)-3-fluoro-4-((1-methylcyclopropyl)meth-oxy)piperidin-1-yl)-3,4-dimethyl-6,7-dihydro-5H-pyrrolo[3,4-b]pyridin-5-one] |
| 139 | Cc1cc2c(nc1N1CCC(OCC3CCCC3)CC1)CNC2=O [Example 175, 2-(4-(cyclopentylmethoxy)piperidin-1-yl)-3-methyl-6,7-dihydro-5H-pyrrolo[3,4-b]pyridin-5-one] |
| 3100 | Cc1cc2c(nc1N1CCC(OCc3ccncc3)CC1)CNC2=O [Example 175A, 3-methyl-2-(4-(pyridin-4-ylmethoxy)piperidin-1-yl)-6,7-dihydro-5H-pyrrolo[3,4-b]pyridin-5-one] |
| 39 | Cc1cc2c(nc1N1CCC(OCC3(C)CC3)CC1)CNC2=O [Example 176, 3-methyl-2-(4-((1-methylcyclopropyl)meth-oxy)piperidin-1-yl)-6,7-dihydro-5H-pyrrolo[3,4-b]pyridin-5-one] |
| 264 | CCc1cc2c(nc1N1CCC(OCC3CC3)CC1)CNC2=O [Example 176A, 2-(4-(cyclopropylmethoxy)piperidin-1-yl)-3-ethyl-6,7-dihydro-5H-pyrrolo[3,4-b]pyridin-5-one] |
